Assay: Test 1: Oxidation of 2,2,6,6-tetramethylpiperidine (TEMP), EPR detection of TEMPO
Settings: porphyrin compound at 0.5 μM, 50 mM TEMP, phosphate buffer pH 7.4, oxygen-saturated, daylight, 1 hour
Protocol: The oxidizing agent used in this test is dissolved oxygen. A solution comprising a phosphate buffer (pH 7.4), 50 mM of the compound 2,2,6,6-tetramethylpiperidine (TEMP) and a porphyrin compound at 0.5 μM is prepared. The solution is saturated with oxygen. The solution is placed in daylight. After 1 hour, electron paramagnetic resonance (EPR) spectrometry of the oxidized form of the compound 2,2,6,6-tetramethylpiperidine (TEMP), which corresponds to the compound […], known as TEMPO, is performed. In accordance with the scientific publication Lion et al., 1976; Moan and Wold, 1979, the presence of the compound in TEMPO form is indicative of the oxidation produced by oxygen on the compound 2,2,6,6-tetramethylpiperidine and thus of the catalytic effect of the porphyrin compound. […] With a porphyrin compound according to the invention, the appearance of the TEMPO compound is observed after 1 hour of placing in contact.

In the case of copper chlorophyllin, the “catalytic oxidation activity: formation of the TEMPO compound from TEMP (test 1)” value is reported as “does not lead to the formation of the TEMPO compound”.

Source: patent publication US9326931B2, “Use of porphyrin-type catalytic oxidation compounds as an anti-dandruff agent” (L'OREAL, priority 2012, dated 2016)
